Results published in article PMC9339560 (Journal of Food and Drug Analysis, 2016).

Columns and labels:
[1] = molecular target: butyrylcholinesterase from equine serum (Equus caballus, UniProt P81908); assay: Butyrylcholinesterase; assay type: biochemical; conditions: read-out: % Inhibition at 100 μg/mL (BChE)
BChE = conditions: cited from earlier work
[2] = test system: β-amyloid-induced neurotoxicity; conditions: mice; cited from earlier work
[3] = test system: mice with valium-impaired memory; conditions: radial arm maze; cited from earlier work
[4] = test system: neuronal cell death caused by oxidative stress; conditions: cited from earlier work
AChE = conditions: cited from earlier work

Chain of butyrylcholinesterase from equine serum (P81908 whole entry): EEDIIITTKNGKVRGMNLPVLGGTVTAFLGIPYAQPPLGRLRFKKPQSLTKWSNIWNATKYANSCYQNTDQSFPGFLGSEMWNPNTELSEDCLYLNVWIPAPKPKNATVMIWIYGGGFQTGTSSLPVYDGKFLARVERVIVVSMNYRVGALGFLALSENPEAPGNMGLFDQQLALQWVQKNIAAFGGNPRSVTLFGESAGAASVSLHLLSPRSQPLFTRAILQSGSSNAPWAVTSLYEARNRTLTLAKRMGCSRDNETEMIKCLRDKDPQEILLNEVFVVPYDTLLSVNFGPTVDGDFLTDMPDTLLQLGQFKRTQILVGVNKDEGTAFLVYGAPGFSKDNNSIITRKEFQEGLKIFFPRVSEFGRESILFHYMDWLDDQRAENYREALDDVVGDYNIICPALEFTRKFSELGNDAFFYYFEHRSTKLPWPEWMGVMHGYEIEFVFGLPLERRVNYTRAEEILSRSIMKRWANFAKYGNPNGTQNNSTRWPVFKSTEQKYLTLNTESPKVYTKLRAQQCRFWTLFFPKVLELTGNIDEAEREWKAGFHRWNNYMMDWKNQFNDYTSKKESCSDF

O=c1c(O[C@@H]2O[C@H](CO)[C@@H](O)[C@H](O)[C@H]2O)c(-c2ccc(O)cc2)oc2cc(O)cc(O)c12 [Compound 13, kaempferol 3-O-β-glucopyranoside]
inhibition at 100 µg/mL [1]: 7.45 ± 0.72%

C/C=C(\CC[C@@H](C)[C@H]1CC[C@H]2[C@@H]3CC=C4C[C@@H](O)CC[C@]4(C)[C@H]3CC[C@]12C)C(C)C [Fucosterol, fucosterol]
BChE inhibitory activity (BChE): weak BChE inhibitory activity

CNC(=O)Oc1ccc2c(c1)[C@]1(C)CCN(C)[C@@H]1N2C [Physostigmine, physostigmine, reference compound]
inhibition at 100 µg/mL [1]: 94.94 ± 0.04%

COc1cc(/C=C/C(=O)O)ccc1O [ferulic acid]
β-amyloid-induced neurotoxicity [2]: attenuate

O=c1c(O)c(-c2ccc(O)cc2)oc2cc(O)cc(O)c12 [kaempferol]
spatial learning and memory [3]: significantly improved

O=C(O)/C=C/c1ccc(O)cc1 [p-coumaric, p-coumaric acid]
β-amyloid-induced neurotoxicity [2]: attenuate

Cc1c(C)c2c(c(C)c1O)CC[C@@](C)(CCC[C@H](C)CCC[C@H](C)CCCC(C)C)O2 [α-Tocopherol, α-tocopherol]
protection against neuronal cell death caused by oxidative stress [4]: protective effects

CC[C@H](CC[C@@H](C)[C@H]1CC[C@H]2[C@@H]3CC=C4C[C@@H](O)CC[C@]4(C)[C@H]3CC[C@]12C)C(C)C [β-sitosterol]
inhibitory effect on BChE (BChE): no appreciable inhibitory effect | inhibitory effect on AChE (AChE): no appreciable inhibitory effect
